Data on 1 compound can be found in PMC7680126, “Structural asymmetry governs the assembly and GTPase activity of McrBC restriction complexes” (Nature Communications, 2020).

One assay has as its target T1, TgMcrB (full-length) (Thermococcus gammatolerans, UniProt C5A3Z3).
T1 construct: gene TGAM_0453; full-length, residues 1-613; 6xHis tag cut by HRV 3C (Gly-Pro left); E. coli BL21(DE3); hexamer
Briefly: malachite green phosphate release. In kind it is biochemical. The following applies: 1 mM GTP, 65 °C, pH 8.0, 150 mM KCl, 5 mM MgCl2; no McrC.

The target in the next assay is T2, TgMcrBC complex (Thermococcus gammatolerans, UniProt C5A3Z3).
T2 construct: gene TGAM_0453; full-length McrB (1-613) and McrC (1-458); tags cut by HRV 3C (Gly-Pro left); E. coli; with McrC, endonuclease subunit of McrBC restriction complex (5-methylcytosine restriction system component McrC)
T2 sequence (C5A3Z3 1-613): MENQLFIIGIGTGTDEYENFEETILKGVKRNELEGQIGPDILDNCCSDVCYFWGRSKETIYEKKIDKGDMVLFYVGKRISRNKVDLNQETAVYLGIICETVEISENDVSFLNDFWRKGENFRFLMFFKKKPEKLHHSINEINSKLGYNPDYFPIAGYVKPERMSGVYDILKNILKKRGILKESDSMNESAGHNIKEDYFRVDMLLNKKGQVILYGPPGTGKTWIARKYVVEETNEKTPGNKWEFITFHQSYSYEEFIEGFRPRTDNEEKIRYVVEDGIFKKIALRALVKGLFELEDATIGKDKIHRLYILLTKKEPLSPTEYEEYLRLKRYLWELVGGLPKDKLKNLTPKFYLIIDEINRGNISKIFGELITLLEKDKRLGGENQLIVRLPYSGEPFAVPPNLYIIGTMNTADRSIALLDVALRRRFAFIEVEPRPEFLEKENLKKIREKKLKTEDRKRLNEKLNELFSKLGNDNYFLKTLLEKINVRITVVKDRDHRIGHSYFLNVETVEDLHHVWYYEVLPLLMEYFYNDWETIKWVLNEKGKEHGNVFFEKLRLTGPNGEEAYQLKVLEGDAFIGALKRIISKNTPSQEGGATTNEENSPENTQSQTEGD
T2 sequence (C5A3Z2 1-458 partner): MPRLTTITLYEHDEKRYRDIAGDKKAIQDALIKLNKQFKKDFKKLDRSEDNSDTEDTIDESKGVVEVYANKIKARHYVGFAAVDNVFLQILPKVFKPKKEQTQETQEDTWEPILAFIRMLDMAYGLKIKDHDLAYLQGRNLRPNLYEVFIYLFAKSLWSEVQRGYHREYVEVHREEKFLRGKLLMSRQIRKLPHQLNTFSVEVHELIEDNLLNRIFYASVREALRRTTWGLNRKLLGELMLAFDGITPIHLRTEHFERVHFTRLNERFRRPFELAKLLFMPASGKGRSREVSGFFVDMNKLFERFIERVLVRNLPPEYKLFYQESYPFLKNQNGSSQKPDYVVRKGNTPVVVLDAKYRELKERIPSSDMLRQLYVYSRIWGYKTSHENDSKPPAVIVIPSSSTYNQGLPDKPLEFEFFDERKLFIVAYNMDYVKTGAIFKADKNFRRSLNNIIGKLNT
Briefly: malachite green phosphate release. In kind it is biochemical. The following applies: 1 mM GTP, 0.1 μM TgMcrC, 65 °C, pH 8.0, 150 mM KCl, 5 mM MgCl2.

On to `Nc1nc2c(ncn2[C@@H]2O[C@H](COP(=O)(O)OP(=O)(O)OP(=O)(O)O)[C@@H](O)[C@H]2O)c(=O)[nH]1` [GTP], for which the “basal GTPase activity” value at TgMcrB (full-length) was “Alanine substitutions at Asn410 and Asp413 in full-length TgMcrB abolish both basal and McrC-stimulated GTPase activity”. In addition, the “McrC-stimulated GTPase activity” value at TgMcrBC complex is recorded as “Purified TgMcrC similarly stimulates TgMcrB’s basal GTPase activity”.
